Measurements reported in patent US9850283B2, “Macrocyclic inhibitors of the PD-1/PD-L1 and CD80(B7-1)/PD-L1 protein/protein interactions” (BRISTOL-MYERS SQUIBB COMPANY, priority 2013, dated 2017).
Like-named read-outs stand apart in the source and are kept apart here. Positions of bridges follow the written chain, without caps; N, C: chain ends. Non-standard residues stand in square brackets, D forms with d. Residues, ends and D or L forms follow the SMILES beside them. ξ: configuration not given here. *: point of attachment. Phe(3,4,5-F3) = N[C@@H](Cc1cc(F)c(F)c(F)c1)C(=O)O; d(cisHyp) = O=C(O)[C@H]1C[C@@H](O)CN1; Cyclopentanecarbonyl = O=C(C1CCCC1)*; Bta = N[C@@H](Cc1csc2ccccc12)C(=O)O; Hyp = O=C(O)[C@@H]1C[C@@H](O)CN1; NMeF = CN[C@@H](Cc1ccccc1)C(=O)O; Cha = N[C@@H](CC1CCCCC1)C(=O)O; NMeNle = CCCC[C@H](NC)C(=O)O; NMeS = CN[C@@H](CO)C(=O)O; dPip = O=C(O)[C@H]1CCCCN1; NMeA = CN[C@@H](C)C(=O)O; Dab = NCC[C@H](N)C(=O)O; Dap = NC[C@H](N)C(=O)O; Bn = c1ccc(C*)cc1; ξC = NC(CS)C(=O)O; Sar = CNCC(=O)O

Tests used:
[1] = target: T1, LK35.2-hPD-L1 cells / PE-labeled PD-1-Ig (Homo sapiens, UniProt Q9NZQ7); assay: LK35.2-hPD-L1 cell binding high-content screening assay; assay type: cell-based; settings: cluster symbol, read-out: CBA IC50 cluster
T1 construct: expressed in transfected cells; host or cells: LK35.2 mouse B cell line
T1 sequence (Q9NZQ7 19-290): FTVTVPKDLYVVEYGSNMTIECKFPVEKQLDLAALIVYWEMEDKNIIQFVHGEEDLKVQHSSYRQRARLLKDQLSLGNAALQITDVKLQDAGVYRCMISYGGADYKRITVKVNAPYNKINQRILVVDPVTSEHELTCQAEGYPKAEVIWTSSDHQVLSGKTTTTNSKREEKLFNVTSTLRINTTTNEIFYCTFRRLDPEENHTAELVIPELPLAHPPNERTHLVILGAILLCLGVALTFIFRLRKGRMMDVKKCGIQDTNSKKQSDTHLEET
In short: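 Fluorescent PD-1-Ig binding to PD-L1-expressing LK35.2 cells, imaged after washing. Conditions: 1 nM PE-PD-1-Ig, 37 °C, 1 h, RPMI with 10% fetal calf serum.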

Human PD-L1/PD-1 = target: T2, Human PD-L1/PD-1 (Homo sapiens, UniProt Q9NZQ7); assay: HTRF PD-1-Ig/PD-L1-His binding assay (human PD-L1); settings: cluster symbol; read-out: HTRF IC50 cluster
T2 construct: made in house; host or cells: HEK293T
T2 sequence (Q9NZQ7 with tags, fused parts or gaps): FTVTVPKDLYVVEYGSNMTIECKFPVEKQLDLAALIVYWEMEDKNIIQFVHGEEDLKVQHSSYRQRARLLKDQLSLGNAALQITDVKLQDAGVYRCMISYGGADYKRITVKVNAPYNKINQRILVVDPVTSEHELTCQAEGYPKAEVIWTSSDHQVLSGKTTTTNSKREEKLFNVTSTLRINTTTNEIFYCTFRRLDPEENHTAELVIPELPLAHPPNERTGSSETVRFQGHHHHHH
In short: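 Soluble PD-1-Ig binding to PD-L1-His measured by HTRF in dPBS with 0.1% BSA and 0.05% Tween-20. Detection used europium cryptate anti-Ig antibody (1 nM final) and APC anti-His antibody (20 nM final) added on top of the binding reaction.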

[2] = cell binding assay, cell line not given
[3] = cell line of CBA not given (LK35.2-hPD-L1 or 293T-hPD-L1)

Row | Compound | IC50 [1, 2] [nM] | IC50 (Human PD-L1/PD-1) [nM] | IC50 [1, 3] [nM]
1 | CCCC[C@H]1C(=O)N(C)[C@@H](CCCC)C(=O)N[C@@H](CCCNC(=N)N)C(=O)NC(C(=O)NCC(N)=O)CSCC(=O)N[C@@H](Cc2ccc(O)cc2)C(=O)N(C)[C@@H](C)C(=O)N[C@@H](CC(N)=O)C(=O)N2C[C@H](O)C[C@H]2C(=O)N[C@@H](Cc2cnc[nH]2)C(=O)N[C@@H](CC(C)C)C(=O)N2C[C@H](O)C[C@H]2C(=O)N[C@@H](Cc2c[nH]c3ccccc23)C(=O)N[C@@H](CO)C(=O)N[C@@H](Cc2csc3ccccc23)C(=O)N1C (stereo partly shown) [Example 9012] ({CH2CO}-Y[NMeA]N[Hyp]HL[Hyp]WS[Bta][NMeNle][NMeNle]R[ξC]G-NH2; thioether N-14) | 0.158 to 4.71 | 6.76 to 30.3 | –
2 | CCCC[C@H]1C(=O)N(C)[C@@H](CCCC)C(=O)N[C@@H](Cc2cccnc2)C(=O)N[C@H](C(=O)NCC(N)=O)CSCC(=O)N[C@@H](Cc2ccc(O)cc2)C(=O)N(C)[C@@H](C)C(=O)N[C@@H](CC(N)=O)C(=O)N2CCC[C@H]2C(=O)N[C@@H](Cc2cnc[nH]2)C(=O)N[C@@H](CC(C)C)C(=O)N2C[C@H](O)C[C@H]2C(=O)N[C@@H](Cc2c[nH]c3ccccc23)C(=O)N[C@@H](CO)C(=O)N[C@@H](Cc2c[nH]c3ccccc23)C(=O)N1C [Example 7033] | 0.158 to 4.71 | 0.385 to 6.74 | –
3 | CCCC[C@H]1C(=O)N(C)[C@@H](CCCC)C(=O)N[C@@H](C)C(=O)N[C@H](C(=O)NCC(N)=O)CSCC(=O)N[C@@H](Cc2ccc(O)cc2)C(=O)N(C)[C@@H](C)C(=O)N[C@@H](CC(N)=O)C(=O)N2CCC[C@H]2C(=O)N[C@@H](CN)C(=O)N[C@@H](CC(=O)O)C(=O)N2C[C@H](O)C[C@H]2C(=O)N[C@@H](Cc2c[nH]c3ccccc23)C(=O)N[C@@H](CO)C(=O)N[C@@H](Cc2c[nH]c3ccccc23)C(=O)N1C [Example 1170] ({CH2CO}-Y[NMeA]NP[Dap]D[Hyp]WSW[NMeNle][NMeNle]ACG-NH2; thioether N-14) | – | 0.385 to 6.74 | 4.78 to 72.9
4 | CCCC[C@H]1C(=O)N(C)[C@@H](CCCC)C(=O)N[C@@H](CC(C)C)C(=O)N[C@H](C(=O)NCC(N)=O)CSCC(=O)N[C@@H](Cc2ccc(O)cc2)C(=O)N(C)[C@@H](C)C(=O)N[C@@H](CC(N)=O)C(=O)N2CCC[C@H]2C(=O)N[C@@H](CN)C(=O)N[C@@H](CC2CCCCC2)C(=O)N2C[C@H](O)C[C@H]2C(=O)N[C@@H](Cc2c[nH]c3ccccc23)C(=O)N[C@@H](CO)C(=O)N[C@@H](Cc2c[nH]c3ccccc23)C(=O)N1C [Example 5082] ({CH2CO}-Y[NMeA]NP[Dap][Cha][Hyp]WSW[NMeNle][NMeNle]LCG-NH2; thioether N-14) | 0.158 to 4.71 | 0.385 to 6.74 | –
5 | CCCC[C@H]1C(=O)N(C)CC(=O)N[C@@H](CC(=O)O)C(=O)N[C@@H](C(C)C)C(=O)N(C)[C@@H](Cc2ccccc2)C(=O)N[C@@H](Cc2ccc(O)cc2)C(=O)N(C)CC(=O)N[C@@H](Cc2c[nH]c3ccccc23)C(=O)N[C@@H](Cc2c[nH]c3ccccc23)C(=O)N[C@@H](CC(C)C)C(=O)N[C@H](C(=O)NCC(N)=O)CSCC(=O)N[C@@H](Cc2ccccc2)C(=O)N(C)[C@@H](Cc2ccccc2)C(=O)N1C [Example 3539] (HELM PEPTIDE1{[O=C(C[*:3])[*:2]].F.[meF].[CCCC[C@@H](C(=O)[*:2])N(C)[*:1]].[Sar].D.V.[meF].Y.[Sar].W.W.L.C.G.[am]}$PEPTIDE1,PEPTIDE1,1:R3-14:R3$$$V2.0) | > 74.3 | > 30.5 | –
6 | CCCC[C@H]1C(=O)N(C)CC(=O)N[C@@H](CC(=O)O)C(=O)N[C@@H](CCC)C(=O)N(C)[C@@H](Cc2ccccc2)C(=O)N[C@@H](Cc2ccc(O)cc2)C(=O)N(C)CC(=O)N[C@@H](Cc2c[nH]c3ccccc23)C(=O)N[C@@H](Cc2ccc(O)cc2)C(=O)N[C@@H](CC(C)C)C(=O)N[C@H](C(=O)NCC(N)=O)CSCC(=O)N[C@@H](Cc2ccccc2)C(=O)N(C)[C@@H](Cc2ccccc2)C(=O)N1C [Example 3525] (HELM PEPTIDE1{[O=C(C[*:3])[*:2]].F.[meF].[CCCC[C@@H](C(=O)[*:2])N(C)[*:1]].[Sar].D.[Nva].[meF].Y.[Sar].W.Y.L.C.G.[am]}$PEPTIDE1,PEPTIDE1,1:R3-14:R3$$$V2.0) | > 74.3 | > 30.5 | –
7 | CCCC[C@H]1C(=O)N[C@@H](CCCNC(=N)N)C(=O)N[C@H](C(=O)NCC(N)=O)CSCC(=O)N[C@@H](Cc2ccccc2)C(=O)N(C)[C@@H](C)C(=O)N[C@@H](CC(N)=O)C(=O)N2CCC[C@H]2C(=O)N[C@@H](Cc2cnc[nH]2)C(=O)N[C@@H](CC(C)C)C(=O)N(C)CC(=O)N[C@@H](Cc2c[nH]c3ccccc23)C(=O)N[C@@H](CO)C(=O)N[C@@H](Cc2c[nH]c3ccccc23)C(=O)N(C)[C@@H](COCc2ccccc2)C(=O)N1C [Example 6013] ({CH2CO}-F[NMeA]NPHL[Sar]WSW[NMeS](Bn)[NMeNle]RCG-NH2; thioether N-14) | 4.78 to 72.9 | 6.76 to 30.3 | –
8 | CCCC[C@H]1C(=O)N(C)[C@@H](CCCC)C(=O)N[C@@H](CCCNC(=N)N)C(=O)N[C@H](C(=O)NCC(N)=O)CSCC(=O)N[C@@H](Cc2ccc(O)cc2)C(=O)N(C)[C@@H](C)C(=O)N[C@@H](CCCCN)C(=O)N2CCC[C@H]2C(=O)N[C@@H](Cc2c[nH]cn2)C(=O)N[C@@H](CC(=O)O)C(=O)N2C[C@H](O)C[C@H]2C(=O)N[C@@H](Cc2c[nH]c3ccccc23)C(=O)N[C@@H](CO)C(=O)N[C@@H](Cc2c[nH]c3ccccc23)C(=O)N1C [Example 5102] ({CH2CO}-Y[NMeA]KPHD[Hyp]WSW[NMeNle][NMeNle]RCG-NH2; thioether N-14) | 4.78 to 72.9 | 6.76 to 30.3 | –
9 | CCCC[C@H]1C(=O)N(C)[C@@H](CCCC)C(=O)N[C@@H](CCC(=O)O)C(=O)N[C@H](C(=O)NCC(N)=O)CSCC(=O)N[C@@H](Cc2ccc(O)cc2)C(=O)N(C)[C@@H](C)C(=O)N[C@@H](CC(=O)O)C(=O)N2CCC[C@H]2C(=O)N[C@@H](Cc2c[nH]cn2)C(=O)N[C@@H](CCCCN)C(=O)N2C[C@H](O)C[C@H]2C(=O)N[C@@H](Cc2c[nH]c3ccccc23)C(=O)N[C@@H](CO)C(=O)N[C@@H](Cc2c[nH]c3ccccc23)C(=O)N1C [Example 5098] ({CH2CO}-Y[NMeA]DPHK[Hyp]WSW[NMeNle][NMeNle]ECG-NH2; thioether N-14) | 4.78 to 72.9 | 0.385 to 6.74 | –
10 | CCCC[C@H]1C(=O)N2C[C@H](O)C[C@@H]2C(=O)N[C@@H](CC(N)=O)C(=O)N[C@@H](C(C)C)C(=O)N(C)[C@@H](Cc2ccccc2)C(=O)N[C@@H](Cc2ccc(O)cc2)C(=O)N2CCCC[C@@H]2C(=O)N[C@@H](Cc2c[nH]c3ccccc23)C(=O)N[C@@H](Cc2ccc(O)cc2)C(=O)N[C@@H](CCCCN)C(=O)N[C@H](C(=O)NCC(N)=O)CSCC(=O)N[C@@H](Cc2cc(F)c(F)c(F)c2)C(=O)N(C)[C@@H](Cc2ccccc2)C(=O)N1C [Example 3589] ({CH2CO}-[Phe(3,4,5-F3)][NMeF][NMeNle][d(cisHyp)]NV[NMeF]Y[dPip]WYKCG-NH2; thioether N-13) | 0.158 to 4.71 | 0.385 to 6.74 | –
11 | CCCC[C@H]1C(=O)N[C@@H](CCCNC(=N)N)C(=O)N[C@H](C(=O)NCC(N)=O)CSCC(=O)N[C@@H](Cc2ccccc2)C(=O)N(C)[C@@H](C)C(=O)N[C@@H](CC(N)=O)C(=O)N2CCC[C@H]2C(=O)N[C@@H](Cc2cnc[nH]2)C(=O)N[C@@H](CC(C)C)C(=O)N(C)CC(=O)N[C@@H](Cc2c[nH]c3ccccc23)C(=O)N[C@@H](CO)C(=O)N[C@@H](Cc2c[nH]c3ccccc23)C(=O)N[C@@H](CNC(=O)C2CCCC2)C(=O)N1C [Example 1012] ({CH2CO}-F[NMeA]NPHL[Sar]WSW[Dap](Cyclopentanecarbonyl)[NMeNle]RCG-NH2; thioether N-14) | – | > 30.5 | > 74.3
12 | CCCC[C@H]1C(=O)N(C)[C@@H](CCCC)C(=O)N[C@@H](CCCNC(=N)N)C(=O)N[C@H](C(=O)NCC(N)=O)CSCC(=O)N[C@@H](Cc2ccc(O)cc2)C(=O)N(C)[C@@H](C)C(=O)N[C@@H](CCN)C(=O)N2CCC[C@H]2C(=O)N[C@@H](CN)C(=O)N[C@@H](CCC(=O)O)C(=O)N2C[C@H](O)C[C@H]2C(=O)N[C@@H](Cc2c[nH]c3ccccc23)C(=O)N[C@@H](CO)C(=O)N[C@@H](Cc2c[nH]c3ccccc23)C(=O)N1C [Example 5131] ({CH2CO}-Y[NMeA][Dab]P[Dap]E[Hyp]WSW[NMeNle][NMeNle]RCG-NH2; thioether N-14) | 0.158 to 4.71 | 0.385 to 6.74 | –
13 | CCCC[C@H]1C(=O)N(C)[C@@H](CCCC)C(=O)N[C@@H](CCC(=O)O)C(=O)N[C@H](C(=O)NCC(N)=O)CSCC(=O)N[C@@H](Cc2ccc(O)cc2)C(=O)N(C)[C@@H](C)C(=O)N[C@@H](CC(N)=O)C(=O)N2CCC[C@H]2C(=O)N[C@@H](Cc2c[nH]cn2)C(=O)N[C@@H](CCC(N)=O)C(=O)N2C[C@H](O)C[C@H]2C(=O)N[C@@H](Cc2c[nH]c3ccccc23)C(=O)N[C@@H](CCCCN)C(=O)N[C@@H](Cc2c[nH]c3ccccc23)C(=O)N1C [Example 5106] ({CH2CO}-Y[NMeA]NPHQ[Hyp]WKW[NMeNle][NMeNle]ECG-NH2; thioether N-14) | 0.158 to 4.71 | 0.385 to 6.74 | –
14 | CCCC[C@H]1C(=O)N(C)CC(=O)N[C@@H](CC(=O)O)C(=O)N[C@@H](C(C)C)C(=O)N(C)[C@@H](Cc2ccccc2)C(=O)N2C[C@H](O)C[C@H]2C(=O)N2CCC[C@@H]2C(=O)N[C@@H](Cc2c[nH]c3ccccc23)C(=O)N[C@@H](Cc2ccc(O)cc2)C(=O)N[C@@H](CC(C)C)C(=O)N[C@H](C(=O)NCC(N)=O)CSCC(=O)N[C@@H](Cc2ccccc2)C(=O)N(C)[C@@H](Cc2ccccc2)C(=O)N1C [Example 3177] (HELM PEPTIDE1{[O=C(C[*:3])[*:2]].F.[meF].[CCCC[C@@H](C(=O)[*:2])N(C)[*:1]].[Sar].D.V.[meF].[Hyp].[dP].W.Y.L.C.G.[am]}$PEPTIDE1,PEPTIDE1,1:R3-14:R3$$$V2.0) | – | > 30.5 | > 74.3
